The subject of experiment [1] is rat blast model of TBI. In words: Rat blast model of TBI, light dark box. Particulars: CBD 5 mg/kg IP, psilocybin 1.5 mg/kg PO from one hour after injury, 7 total doses; vs vehicle; FIG. 2. Format: in vivo. From the text:
This increased time spent in light was not seen with either CBD or psilocybin when dosed separately.

Experiment [2] deals with adult rats exposed to a moderate fluid-percussion pulse over the right parietal cortex. The experiment is described as follows: Moderate fluid-percussion TBI, stereological volumetric analyses of contusion and cortical atrophy. The format is in vivo, rat. The note with it: approximately 4 weeks after injury; relative to injured vehicle-control animals; FIG. 5 right panel. The method, then:
(§1) Another study was conducted in rats to evaluate the synergy of an oral combination of psilocybin and CBD in mitigating TBI-induced pathology in a preclinical model of TBI. In this study, adult rats were exposed to a moderate fluid-percussion pulse over the right parietal cortex.
(§2) Psilocybin (1.5 mg/kg) and/or CBD (5 mg/kg) in 1 mL of ddH2O (or vehicle/ddH2O alone) was dosed by oral gavage at 1-hour post-injury, and for 1×/day for 6 consecutive days thereafter, resulting in 7 total dosage administrations. Animals receiving psilocybin+CBD were exposed to a traumatic/fearful stimulus (predatory urine) to evaluate anxiety-like behavior. Outcome measurements included sensorimotor (cylinder test), cytoprotection (volumetric analyses of contusion and cortical atrophy), and neuroinflammation (microglia reactivity).

Experiment [3] relates to Iba1+ microglia. The experiment is described as follows: Moderate fluid-percussion TBI, immunohistochemical analysis of microglia reactivity. Format: in vivo, rat. The procedure:
as §1, §2
Boxes demarcate representative cells in which changes could be compared.

[4] abbreviates: preliminary quantitative analyses, FIG. 7.

In the case of `C=C(C)[C@@H]1CCC(C)=C[C@H]1c1c(O)cc(CCCCC)cc1O` [CBD, Cannabidiol], the “stress, time spent in light in the light dark box” value in experiment [1] was “not seen”. In experiment [2], the cortical volume atrophy result is “trended positively towards normalization”. Further, the “reactive microglia morphology, CA1” value in experiment [3] (CBD 5 mg/kg alone vs TBI/Vehicle, FIG. 6 bottom row) is “seemed to reduce reactive microglia morphology”. Besides, the “number of Iba1+ cells, dentate gyrus of ipsilateral hippocampus” value in experiment [3] (CBD 5 mg/kg alone vs controls, FIG. 6 middle row) is “significantly greater in number in controls compared to CBD group”. In addition, the “Iba1+ cell density, CA1” value in experiment [3] (CBD 5 mg/kg alone vs injured vehicle, FIG. 6 bottom row) is reported as “no overt differences”. In addition, in experiment [3] (CBD 5 mg/kg alone, FIG. 6), the “injury-induced Iba+ microglia changes” value was “normalization of injury-induced Iba+microglia changes”. In addition, the “density of Iba1+ cells, pericontusional cortex” value in experiment [3] (CBD 5 mg/kg alone, FIG. 6 top row) is “reduced density of Iba1+ cells”. In experiment [3] (setting [4]), the “activated microglia phenotypes, cortical penumbra” value is reported as “significantly decreased” and the “overall microglia numbers, cortical penumbra” value is on record as “reduced overall microglia numbers”.

Values taken from US12397007B2, “Methods of treatment with combinations of cannabidiol and psilocybin” (ECP Pharma, priority 2021, dated 2025).
